# How the values were obtained:
# Type in all cases: biochemical
# [1] = target: T1, HSepi (heparan sulfate glucuronyl C5-epimerase) (Homo sapiens, UniProt O94923); test: epimerase activity assay (3H release from [[…]-3H]-N-sulfated K5 polysaccharide) with recombinant enzyme
# T1 construct: gene GLCE; full-length, myc-HIS fusion
# T1 sequence (O94923 1-617): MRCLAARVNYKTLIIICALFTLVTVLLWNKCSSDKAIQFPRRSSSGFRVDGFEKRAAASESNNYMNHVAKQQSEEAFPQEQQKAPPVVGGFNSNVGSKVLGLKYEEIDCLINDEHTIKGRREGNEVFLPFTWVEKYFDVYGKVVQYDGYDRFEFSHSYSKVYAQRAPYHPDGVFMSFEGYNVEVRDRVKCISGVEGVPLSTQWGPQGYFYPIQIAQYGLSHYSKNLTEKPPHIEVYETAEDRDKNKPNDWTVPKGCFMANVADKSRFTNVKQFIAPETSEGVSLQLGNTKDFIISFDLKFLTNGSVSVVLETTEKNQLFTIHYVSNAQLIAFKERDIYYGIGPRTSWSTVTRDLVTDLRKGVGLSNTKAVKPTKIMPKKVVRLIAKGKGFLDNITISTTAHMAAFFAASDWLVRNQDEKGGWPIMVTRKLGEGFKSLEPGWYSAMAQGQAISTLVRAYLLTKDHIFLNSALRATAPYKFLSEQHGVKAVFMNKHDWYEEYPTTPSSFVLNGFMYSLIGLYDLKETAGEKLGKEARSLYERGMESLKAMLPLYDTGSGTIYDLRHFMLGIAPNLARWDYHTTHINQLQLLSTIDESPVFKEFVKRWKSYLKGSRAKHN
# [2] = target: T2, DS-epi1 (DS-epimerase 1) (Homo sapiens, UniProt Q9UL01); test: epimerase activity assay (3H release from [[…]-3H]dK4) with recombinant enzyme; dialysis irreversibility test; Lineweaver-Burk kinetics
# T2 construct: gene DSE; truncated form (amino acid 23–775-HIS)
# [3] = target: T3, D4ST1 (DS 4-O-sulfotransferase 1) (Homo sapiens, UniProt Q8NCH0); test: sulfotransferase activity assay ([…]PAPS incorporation) with recombinant enzyme
# T3 construct: gene CHST14; D4ST1-HIS (amino acid 61–376)
# T3 sequence (Q8NCH0 61-376): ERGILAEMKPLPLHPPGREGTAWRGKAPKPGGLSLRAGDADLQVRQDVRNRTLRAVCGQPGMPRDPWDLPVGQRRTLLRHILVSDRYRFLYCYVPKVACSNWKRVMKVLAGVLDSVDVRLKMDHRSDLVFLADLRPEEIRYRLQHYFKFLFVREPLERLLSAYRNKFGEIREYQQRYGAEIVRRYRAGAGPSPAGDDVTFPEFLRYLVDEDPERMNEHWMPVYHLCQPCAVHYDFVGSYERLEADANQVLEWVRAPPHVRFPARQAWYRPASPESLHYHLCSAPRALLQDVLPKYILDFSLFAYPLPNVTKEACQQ
compound,measurement,setting,value
"O=c1c2ccccc2[se]n1-c1ccccc1 [ebselen, 2-phenyl-1,2-benzoisoselenazol-3(2H)-one]",IC50,[1],800 nM
same,IC50,[2],7000 nM
same,IC50,[3],1500 nM
